Laboratory results taken from patent US6737383B1, “Herbicidal oxadiazolidines” (priority 1999, dated 2004).

Key:
bedstraw = test: Test B pre/postemergence bedstraw; type: in vivo, Galium aparine
Procedure, shortened: (§1)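 Response is a visual 0-to-10 score relative to untreated plants, where 0 means no effect and 10 means complete control, taken twelve to sixteen days after application. Treatments went onto soil at planting and onto foliage of 1- to 4-leaf plants, using a surfactant-containing non-phytotoxic solvent.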

blackgrass = test: Test B pre/postemergence blackgrass; type: in vivo, Alopecurus myosuroides
Procedure, shortened: as §1

surinam grass = test: Test B pre/postemergence surinam grass; type: in vivo, Brachiaria decumbens
Procedure, shortened: as §1

corn = test: Test B pre/postemergence corn; type: in vivo, Zea mays
Procedure, shortened: as §1

crabgrass = test: Test B pre/postemergence crabgrass; type: in vivo, Digitaria sanguinalis
Procedure, shortened: as §1

pigweed = test: Test B pre/postemergence pigweed; type: in vivo, Amaranthus retroflexus
Procedure, shortened: as §1

rape = test: Test B pre/postemergence rape; type: in vivo, Brassica napus
Procedure, shortened: as §1

soybean = test: Test B pre/postemergence soybean; type: in vivo, Glycine max
Procedure, shortened: as §1

sugar beet = test: Test B pre/postemergence sugar beet; type: in vivo, Beta vulgaris
Procedure, shortened: as §1

velvetleaf = test: Test B pre/postemergence velvetleaf; type: in vivo, Abutilon theophrasti
Procedure, shortened: as §1

wheat = test: Test B pre/postemergence wheat; type: in vivo, Triticum aestivum
Procedure, shortened: as §1

wild oat = test: Test B pre/postemergence wild oat; type: in vivo, Avena fatua
Procedure, shortened: as §1

purple nutsedge = test: Test B pre/postemergence purple nutsedge; type: in vivo, Cyperus rotundus
Procedure, shortened: as §1

rice = test: Test B flood test rice; type: in vivo, Oryza sativa
Procedure, shortened: (§2)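 Read-out is a visual response score from 0 (no effect) to 10 (complete control), assigned by comparison with untreated controls. Treatment was applied at the 2-leaf stage, and plants stayed in the greenhouse for twelve to sixteen days before scoring.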

smallflower flatsedge = test: Test B flood test smallflower flatsedge; type: in vivo, Cyperus difformis
Procedure, shortened: as §2

duck salad = test: Test B flood test duck salad; type: in vivo, Heteranthera limosa
Procedure, shortened: as §2

[1] = Postemergence, Rate 62 g/ha, scale of 0 to 10, 0 is no effect, 10 is complete control
[2] = Postemergence, Rate 125 g/ha, scale 0 to 10, 0 is no effect, 10 is complete control
[3] = Postemergence, Rate 500 g/ha, scale 0 to 10, 0 is no effect, 10 is complete control
[4] = Preemergence, Rate 62 g/ha, scale of 0 to 10 where 0 is no effect and 10 is complete control
[5] = Rate 250 g/ha, Postemergence, scale of 0 to 10 where 0 is no effect and 10 is complete control
[6] = Preemergence, Rate 125 g/ha, scale 0 to 10, 0 is no effect, 10 is complete control
[7] = Preemergence, Rate 500 g/ha, scale of 0 to 10 where 0 is no effect and 10 is complete control
[8] = Rate 62 g/ha, flood test species, Pre-emergence, visual evaluation after twelve to sixteen days
[9] = Rate 125 g/ha, under heading Pre-emergence, flood test species, visual evaluation after twelve to sixteen days
[10] = Rate 250 g/ha, Pre-emergence (flood test species), scale 0 to 10, 0 is no effect, 10 is complete control
[11] = Rate 500 g/ha, Pre-emergence section of Table B, 0 to 10 scale (0 no effect, 10 complete control)

CC(C)N(C(=O)n1oc(=O)n(CCC2OCCO2)c1=O)c1ccc(Cl)cc1 [Compound 531]
Bedstraw plant response rating (bedstraw; [1]): 0
Bedstraw plant response rating (bedstraw; [2]): 0
Plant response rating, Bedstraw (bedstraw; [3]): 3
Plant response rating, Bedstraw (bedstraw; [4]): 0
Bedstraw plant response rating (0 to 10 scale) (bedstraw; Preemergence, Rate 250 g/ha): 0
Plant response rating, Bedstraw (bedstraw; [5]): 0
Blackgrass plant response rating (blackgrass; [1]): 0
Blackgrass plant response rating (blackgrass; [2]): 0
Plant response rating, Blackgrass (blackgrass; [3]): 6
Plant response rating, Blackgrass (blackgrass; [4]): 2
Blackgrass plant response rating (blackgrass; [6]): 9
Blackgrass plant response rating (0 to 10 scale) (blackgrass; Preemergence, Rate 250 g/ha): 9
Plant response rating, Blackgrass (blackgrass; [5]): 0
B. signalgrass plant response rating (surinam grass; [1]): 0
B. signalgrass plant response rating (surinam grass; [2]): 0
Plant response rating, B. signalgrass (surinam grass; [3]): 4
Plant response rating, B. signalgrass (surinam grass; [4]): 2
B. signalgrass plant response rating (surinam grass; [6]): 2
B. signalgrass plant response rating (0 to 10 scale, 0 is no effect, 10 is complete control) (surinam grass; Preemergence, Rate 250 g/ha): 2
Plant response rating, B. signalgrass (surinam grass; [5]): 0
Corn plant response rating (corn; [1]): 0
Corn plant response rating (corn; [2]): 0
Plant response rating, Corn (corn; [3]): 0
Plant response rating, Corn (corn; [4]): 0
Corn plant response rating (corn; [6]): 0
Corn plant response rating (0 to 10 scale) (corn; Preemergence, Rate 250 g/ha): 0
Corn plant response rating (corn; [7]): 0
Plant response rating, Corn (corn; [5]): 0
Crabgrass plant response rating (crabgrass; [1]): 2
Crabgrass plant response rating (crabgrass; [2]): 8
Plant response rating, Crabgrass (crabgrass; [3]): 10
Plant response rating, Crabgrass (crabgrass; [4]): 8
Crabgrass plant response rating (crabgrass; [6]): 10
Crabgrass plant response rating (0 to 10 scale) (crabgrass; Preemergence, Rate 250 g/ha): 10
Crabgrass plant response rating (crabgrass; [7]): 10
Plant response rating, Crabgrass (crabgrass; [5]): 9
Redroot pigweed plant response rating (pigweed; [1]): 0
Redroot pigweed plant response rating (pigweed; [2]): 0
Plant response rating, Redroot pigweed (pigweed; [3]): 0
Plant response rating, Redroot pigweed (pigweed; [4]): 0
Redroot pigweed plant response rating (pigweed; [6]): 0
Redroot pigweed plant response rating (0 to 10 scale) (pigweed; Preemergence, Rate 250 g/ha): 0
Plant response rating, Redroot pigweed (pigweed; [5]): 0
Rape plant response rating (rape; [1]): 0
Rape plant response rating (rape; [2]): 0
Plant response rating, Rape (rape; [3]): 2
Plant response rating, Rape (rape; [4]): 0
Rape plant response rating (rape; [6]): 0
Rape plant response rating (0 to 10 scale) (rape; Preemergence, Rate 250 g/ha): 0
Plant response rating, Rape (rape; [5]): 0
Soybean plant response rating (soybean; [1]): 3
Soybean plant response rating (soybean; [2]): 3
Plant response rating, Soybean (soybean; [3]): 6
Plant response rating, Soybean (soybean; [4]): 0
Soybean plant response rating (soybean; [6]): 0
Soybean plant response rating (0 to 10 scale) (soybean; Preemergence, Rate 250 g/ha): 0
Soybean plant response rating (soybean; [7]): 0
Plant response rating, Soybean (soybean; [5]): 6
Sugarbeets plant response rating (sugar beet; [1]): 0
Sugarbeets plant response rating (sugar beet; [2]): 0
Plant response rating, Sugarbeets (sugar beet; [3]): 6
Plant response rating, Sugarbeets (sugar beet; [4]): 0
Sugarbeets plant response rating (sugar beet; [6]): 4
Sugarbeets plant response rating (0 to 10 scale) (sugar beet; Preemergence, Rate 250 g/ha): 3
Plant response rating, Sugarbeets (sugar beet; [5]): 0
Velvetleaf plant response rating (velvetleaf; [1]): 0
Velvetleaf plant response rating (velvetleaf; [2]): 0
Plant response rating, Velvetleaf (velvetleaf; [3]): 3
Plant response rating, Velvetleaf (velvetleaf; [4]): 0
Velvetleaf plant response rating (velvetleaf; [6]): 0
Velvetleaf plant response rating (0 to 10 scale) (velvetleaf; Preemergence, Rate 250 g/ha): 2
Velvetleaf plant response rating (velvetleaf; [7]): 5
Plant response rating, Velvetleaf (velvetleaf; [5]): 0
Wheat plant response rating (wheat; [1]): 0
Wheat plant response rating (wheat; [2]): 0
Plant response rating, Wheat (wheat; [3]): 0
Plant response rating, Wheat (wheat; [4]): 0
Wheat plant response rating (wheat; [6]): 0
Wheat plant response rating (0 to 10 scale) (wheat; Preemergence, Rate 250 g/ha): 0
Plant response rating, Wheat (wheat; [5]): 0
Wild oats plant response rating (wild oat; [1]): 0
Wild oats plant response rating (wild oat; [2]): 0
Plant response rating, Wild oats (wild oat; [3]): 0
Plant response rating, Wild oats (wild oat; [4]): 0
Wild oats plant response rating (wild oat; [6]): 0
Wild oats plant response rating (0 to 10 scale) (wild oat; Preemergence, Rate 250 g/ha): 0
Plant response rating, Wild oats (wild oat; [5]): 0
Nutsedge plant response rating (purple nutsedge; [1]): 0
Nutsedge plant response rating (purple nutsedge; [2]): 0
Plant response rating, Nutsedge (purple nutsedge; [3]): 3
Plant response rating, Nutsedge (purple nutsedge; [4]): 0
Nutsedge plant response rating (purple nutsedge; [6]): 0
Nutsedge plant response rating (0 to 10 scale) (purple nutsedge; Preemergence, Rate 250 g/ha): 0
Nutsedge plant response rating (purple nutsedge; [7]): 0
Plant response rating, Nutsedge (purple nutsedge; [5]): 0
Plant response rating, Rice (0 to 10 scale, 0 is no effect, 10 is complete control) (rice; [8]): 0
Rice plant response rating (0 to 10 scale, 0 is no effect, 10 is complete control) (rice; [9]): 0
Rice plant response rating (rice; [10]): 0
Rice plant response rating (rice; [11]): 0
Plant response rating, S. Flatsedge (0 to 10 scale, 0 is no effect, 10 is complete control) (smallflower flatsedge; [8]): 0
S. Flatsedge plant response rating (0 to 10 scale, 0 is no effect, 10 is complete control) (smallflower flatsedge; [9]): 0
S. Flatsedge plant response rating (smallflower flatsedge; [10]): 0
S. Flatsedge plant response rating (smallflower flatsedge; [11]): 0
Plant response rating, Ducksalad (0 to 10 scale, 0 is no effect, 10 is complete control) (duck salad; [8]): 0
Ducksalad plant response rating (0 to 10 scale, 0 is no effect, 10 is complete control) (duck salad; [9]): 0
Ducksalad plant response rating (duck salad; [10]): 0
Ducksalad plant response rating (duck salad; [11]): 0
